Measurements published in patent US12201612B2, “Use of mavoglurant in the reduction of alcohol use or in preventing relapse into alcohol use” (NOVARTIS AG, priority 2017, dated 2025).
Entries after “also recorded” stand apart in the source; their conditions may differ.

Experiments:
mice [1] = conditions: cited from earlier work
monoamine oxidase = conditions: cited from earlier work
NMDA receptors = conditions: cited from earlier work
[2] = molecular target: norepinephrine transporter (Homo sapiens, UniProt P23975); conditions: cited from earlier work
mice [3] = conditions: cited from earlier work; remark: listed apart in the source
rats = conditions: cited from earlier work
Sprague-Dawley rats [4] = assay: Cue-induced reinstatement of the cocaine self-administration response (Phase II); type: in vivo, rat; conditions: 10 mg/kg PO, 1 hour prior to test; after 9-day extinction
Protocol: The methods for food training, catheter surgery, flushing and infusion confirmation were the same as those in Phase I.
Cocaine self-administration training in this stage was conducted in a separate cohort of rats (N=32). The methods of training were the same as those in Phase I, but the cues (light flash plus tone) appeared concurrently during cocaine infusion, and the cue light stayed on during the 20 second timeout period. As in Phase I, rats underwent 15 days of acquisition training.
After a stable rate of cocaine self-administration was achieved, the rats underwent a 9-day extinction procedure, which was similar to acquisition training except that pressing the active lever led to saline infusion instead of cocaine. During extinction sessions no cues were presented after an active lever-press. Rats were all reached the criterion for extinction (number of infusions ≤5, i.e. number of active lever responses <30 in the 1-hour session) in day 9 (last day) of extinction training.
During the reinstatement session, which occurred one day after the last extinction session, rats were presented the cues (flash+tone) at the beginning of the session and their lever-press responses recorded. There was no cocaine infusion during this reinstatement session, subject only received saline on a FR5 schedule. […]

Sprague-Dawley rats [5] = assay: Acute effects on cocaine intravenous self-administration (Phase I, FR5); type: in vivo, rat; conditions: sub-cohort I-b
Protocol: Adult male Sprague-Dawley rats (300-325 g at arrival) from Harlan Laboratory (Indiana, USA) were used. Upon arrival, the rats were assigned a unique identification numbers (tail marks). Animals were single housed in suspended polycarbonate rat cages with filter tops, and were acclimated for up to 7 days. All rats were examined, handled, and weighed prior to initiation of the study to assure adequate health and suitability. During the course of the study, 12 h/12 h light/dark cycles were maintained. The room temperature was 21-23° C. with a relative humidity maintained at 30-70%. Water was provided ad libitum for the duration of the study.
Cocaine Hydrochloride (Sigma-Aldrich, USA) (1.05 mg/ml which is equivalent to 0.3 mg/kg/infusion under 350 g body weight and 0.1 ml/infusion rate) was dissolved in saline (0.9% NaCl). The formulation was a clear solution.
Mavoglurant (free form) was formulated in 0.5% methylcellulose (MC) at 1, 3 and 10 mg/kg and administered orally at a dose volume of 1 ml/kg 60 minutes prior to test.
Intravenous drug self-administration took place in sound attenuated operant chambers equipped with an exhaust fan (Med Associates, VT). Each chamber contained two levers situated on one wall of the chamber. Only one of the two levers was active (located on the left side). Pressing the active lever caused delivery of reinforcer (food or cocaine). […]

cytochrome P450 1A2 = molecular target: T1, cytochrome P450 1A2 (Homo sapiens, UniProt P05177); conditions: cited from earlier work
T1 sequence (P05177 1-516): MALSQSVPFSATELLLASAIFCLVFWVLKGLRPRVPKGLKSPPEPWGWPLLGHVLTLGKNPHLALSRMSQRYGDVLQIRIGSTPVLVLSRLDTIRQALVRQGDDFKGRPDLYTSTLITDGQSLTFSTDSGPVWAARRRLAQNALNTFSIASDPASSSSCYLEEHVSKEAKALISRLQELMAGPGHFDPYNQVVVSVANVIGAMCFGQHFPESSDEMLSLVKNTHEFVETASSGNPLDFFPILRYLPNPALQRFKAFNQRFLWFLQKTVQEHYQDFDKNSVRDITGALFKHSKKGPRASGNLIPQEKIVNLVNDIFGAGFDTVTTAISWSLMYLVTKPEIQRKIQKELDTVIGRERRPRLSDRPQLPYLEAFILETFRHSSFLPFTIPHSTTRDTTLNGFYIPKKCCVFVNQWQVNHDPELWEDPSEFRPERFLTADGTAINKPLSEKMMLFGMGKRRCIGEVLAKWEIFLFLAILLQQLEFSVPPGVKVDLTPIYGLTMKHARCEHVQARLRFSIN

Chain of norepinephrine transporter (P23975 whole entry, species assumed): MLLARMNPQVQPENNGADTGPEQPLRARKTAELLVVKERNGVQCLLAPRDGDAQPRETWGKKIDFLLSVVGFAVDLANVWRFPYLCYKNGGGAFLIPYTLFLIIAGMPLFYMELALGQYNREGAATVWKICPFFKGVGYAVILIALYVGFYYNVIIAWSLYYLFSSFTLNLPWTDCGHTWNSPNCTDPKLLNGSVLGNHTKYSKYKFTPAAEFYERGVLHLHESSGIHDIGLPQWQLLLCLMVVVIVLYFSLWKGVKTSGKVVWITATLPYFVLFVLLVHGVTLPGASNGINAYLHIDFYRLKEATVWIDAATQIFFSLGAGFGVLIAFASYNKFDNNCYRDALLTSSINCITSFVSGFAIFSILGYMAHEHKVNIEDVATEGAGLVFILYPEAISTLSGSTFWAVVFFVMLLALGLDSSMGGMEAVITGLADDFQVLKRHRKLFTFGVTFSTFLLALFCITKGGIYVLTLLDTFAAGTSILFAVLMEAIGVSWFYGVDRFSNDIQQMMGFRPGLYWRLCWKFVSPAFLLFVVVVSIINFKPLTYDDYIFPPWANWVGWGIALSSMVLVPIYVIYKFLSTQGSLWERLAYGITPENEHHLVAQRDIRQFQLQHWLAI

Compound	ethanol self-administration (mice [1])	off-target effects on monoamine oxidase (monoamine oxidase)	off-target effects on NMDA receptors (NMDA receptors)	off-target effects on the norepinephrine transporter [2]	cocaine self-administration (mice [3])	cocaine self-administration (rats)	cue-induced reinstatement of the self-administration response (Sprague-Dawley rats [4])	responding on the active lever (cocaine self-administration) (Sprague-Dawley rats [5]; 3 mg/kg PO, 60 minutes prior to test, post hoc p<0.10)	responding on the active lever (cocaine self-administration) (Sprague-Dawley rats [5]; 10 mg/kg PO, 1 hour prior to test, post hoc p<0.001)	ethanol consumption (mice [1])	inhibition of cytochrome P450 1A2 (cytochrome P450 1A2)
Cc1cccc(C#Cc2ccccc2)n1 [MPEP, 2-methyl-6-(2-phenylethynyl)pyridine]	decreased ethanol self-administration	off-target effects	off-target effects	off-target effects	decreased cocaine self-administration	decreased cocaine self-administration	–	–	–	–	–
COC(=O)N1CC[C@@H]2[C@H]1CCC[C@@]2(O)C#Cc1cccc(C)c1 [mavoglurant, (−)-(3aR,4S,7aR)-4-Hydroxy-4-m-tolylethynyl-octahydro-indole-1-carboxylic acid methyl ester]	–	–	–	–	–	–	cue-induced reinstatement was suppressed; also recorded: completely prevented cue-induced reinstatement	tended to reduce responding on the active lever	significantly reduced responding; also recorded: significantly reduced cocaine self-administration	–	–
Cc1nc(C#Cc2cccnc2)cs1 [MTEP, 3-[2-(2-methylthiazol-4-yl)ethynyl]pyridine]	decreased ethanol self-administration	–	–	–	–	decreased cocaine self-administration	–	–	–	decreased ethanol consumption	potent inhibition
